The text below walks through data of PubChem BioAssay AID248 (DTP/NCI, 2004).

Toxic doses and inconclusive results are not listed.

In the experiment the test system is L1210 leukemia ip in BDF1 mice, survival T/C. Description: NCI In Vivo Anticancer Drug Screen. Data for tumor model L1210 Leukemia (intraperitoneal) in B6D2F1 (BDF1) mice. To be noted: endpoint: mean survival time, higher = longer survival. A digest of the protocol: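 In this screen, tumor-bearing mice given compound are compared to those given vehicle, and their survival values are reported as a treated-to-control quotient.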

The mark [1] stands for this setting: dose: 100.0 mg/kg/injection, schedule: Q04DX002 (ip), vehicle: Klucel (hydroxypropylcellulose) (HPC).
The mark [2] stands for this setting: dose: 200.0 mg/kg/injection, schedule: Q04DX002 (ip), vehicle: Klucel (hydroxypropylcellulose) (HPC).
[3] abbreviates: dose: 400.0 mg/kg/injection, schedule: Q04DX002 (ip), vehicle: Klucel (hydroxypropylcellulose) (HPC).
The mark [4] stands for this setting: dose: 100.0 mg/kg/injection, schedule: Q01DX009 (ip), vehicle: saline with Tween-80.
Setting [5] is: dose: 100.0 mg/kg/injection, schedule: Q01DX009 (ip), vehicle: Klucel (hydroxypropylcellulose) (HPC).
Where [6] appears, read: dose: 100.0 mg/kg/injection, schedule: Q04DX003 (ip), vehicle: saline.
[7] abbreviates: dose: 200.0 mg/kg/injection, schedule: Q04DX003 (ip), vehicle: saline.
Where [8] appears, read: dose: 400.0 mg/kg/injection, schedule: Q04DX003 (ip), vehicle: saline.
Setting [9] is: dose: 100.0 mg/kg/injection, schedule: Q01DX009 (ip), vehicle: saline.
The mark [10] stands for this setting: dose: 200.0 mg/kg/injection, schedule: Q01DX009 (ip), vehicle: saline.
[11] abbreviates: dose: 100.0 mg/kg/injection, schedule: Q04DX003 (ip), vehicle: Klucel (hydroxypropylcellulose) (HPC).
Setting [12] is: dose: 200.0 mg/kg/injection, schedule: Q04DX003 (ip), vehicle: Klucel (hydroxypropylcellulose) (HPC).
[13] abbreviates: dose: 400.0 mg/kg/injection, schedule: Q04DX003 (ip), vehicle: Klucel (hydroxypropylcellulose) (HPC).
Setting [14] is: dose: 50.0 mg/kg/injection, schedule: Q01DX009 (ip), vehicle: saline.

Take `O=C(NO)c1cccc(C(=O)NO)n1`: the T/C (dose: 237.0 mg/kg/injection, schedule: Q01DX015 (ip), vehicle: water) is 113 % of control; the T/C (dose: 356.0 mg/kg/injection, schedule: Q01DX015 (ip), vehicle: water) is 114 % of control; the T/C (dose: 533.0 mg/kg/injection, schedule: Q01DX015 (ip), vehicle: water) is 104 % of control.
In the case of `O=C(Nc1ccc(Cl)cc1C(=O)c1ccccc1)c1ccc([N+](=O)[O-])cc1`, the T/C reads like this: under setting [1], 89 % of control; under setting [2], 95 % of control; under setting [3], 92 % of control.
As for `CC[N-]c1nncs1.CC[N-]c1nncs1.CC[N-]c1nncs1.CC[N-]c1nncs1.[Cl][Rh][Cl]`, the T/C is, setting by setting: (dose: 3.13 mg/kg/injection, schedule: Q04DX003 (ip), vehicle: distilled water + Tween-80) 101 % of control; (dose: 6.25 mg/kg/injection, schedule: Q04DX003 (ip), vehicle: distilled water + Tween-80) 104 % of control; (dose: 12.5 mg/kg/injection, schedule: Q04DX003 (ip), vehicle: distilled water + Tween-80) 98 % of control; (dose: 25.0 mg/kg/injection, schedule: Q04DX003 (ip), vehicle: distilled water + Tween-80) 92 % of control; (dose: 50.0 mg/kg/injection, schedule: Q04DX003 (ip), vehicle: distilled water + Tween-80) 93 % of control; (dose: 100.0 mg/kg/injection, schedule: Q04DX003 (ip), vehicle: distilled water + Tween-80) 104 % of control.
`CNc1nc[nH]c(=O)c1NC(=O)c1ccccc1`: the T/C by setting is: (dose: 45.0 mg/kg/injection, schedule: Q01DX001 (ip), vehicle: Klucel (hydroxypropylcellulose) (HPC)) 103 % of control; (dose: 90.0 mg/kg/injection, schedule: Q01DX001 (ip), vehicle: Klucel (hydroxypropylcellulose) (HPC)) 95 % of control; (dose: 180.0 mg/kg/injection, schedule: Q01DX001 (ip), vehicle: Klucel (hydroxypropylcellulose) (HPC)) 92 % of control.
`CNC(Cc1ccccc1)c1ccccc1` (stereo unspecified): the T/C (dose: 25.0 mg/kg/injection, schedule: Q01DX009 (ip), vehicle: saline with Tween-80) was 94 % of control; the T/C (dose: 50.0 mg/kg/injection, schedule: Q01DX009 (ip), vehicle: saline with Tween-80) is 101 % of control; the T/C under setting [4] was 99 % of control.
Turning to `COC(=O)CC(C(=O)OC)C(=O)OC`, the T/C reads like this: (dose: 75.0 mg/kg/injection, schedule: Q01DX001 (ip), vehicle: Klucel (hydroxypropylcellulose) (HPC)) 105 % of control; (dose: 75.0 mg/kg/injection, schedule: Q01DX009 (ip), vehicle: Klucel (hydroxypropylcellulose) (HPC)) 97 % of control; (dose: 150.0 mg/kg/injection, schedule: Q01DX001 (ip), vehicle: Klucel (hydroxypropylcellulose) (HPC)) 103 % of control; (dose: 150.0 mg/kg/injection, schedule: Q01DX009 (ip), vehicle: Klucel (hydroxypropylcellulose) (HPC)) 105 % of control; (dose: 300.0 mg/kg/injection, schedule: Q01DX001 (ip), vehicle: Klucel (hydroxypropylcellulose) (HPC)) 90 % of control; (dose: 300.0 mg/kg/injection, schedule: Q01DX009 (ip), vehicle: Klucel (hydroxypropylcellulose) (HPC)) 105 % of control.
In the case of `OCC1C(CO)C2(Cl)C(Cl)=C(Cl)C1(Cl)C2(Cl)Cl` (stereo unspecified), the T/C was 90 % of control under setting [5]; 94 % of control under setting [6]; 100 % of control (dose: 200.0 mg/kg/injection, schedule: Q01DX009 (ip), vehicle: Klucel (hydroxypropylcellulose) (HPC)); 101 % of control under setting [7]; 111 % of control (dose: 400.0 mg/kg/injection, schedule: Q01DX009 (ip), vehicle: Klucel (hydroxypropylcellulose) (HPC)); 99 % of control under setting [8].
Turning to `CC(C)(O)C(O)c1ccccc1` (stereo unspecified), the T/C was 103 % of control (dose: 100.0 mg/kg/injection, schedule: Q01DX001 (ip), vehicle: saline); 98 % of control under setting [9]; 97 % of control under setting [6]; 101 % of control (dose: 200.0 mg/kg/injection, schedule: Q01DX001 (ip), vehicle: saline); 93 % of control under setting [10]; 97 % of control under setting [7]. Besides, the T/C reads like this: (dose: 400.0 mg/kg/injection, schedule: Q01DX001 (ip), vehicle: saline) 95 % of control; under setting [8], 100 % of control.
As for `Cc1ccc(-c2nc3cc(Cl)ccc3c(=O)o2)cc1`, the T/C (dose: 100.0 mg/kg/injection, schedule: Q04DX003 (ip), vehicle: saline with Tween-80) was 105 % of control; the T/C (dose: 200.0 mg/kg/injection, schedule: Q04DX003 (ip), vehicle: saline with Tween-80) is 102 % of control; the T/C (dose: 400.0 mg/kg/injection, schedule: Q04DX003 (ip), vehicle: saline with Tween-80) is 94 % of control.
For `C#CCOS(=O)OCCCCCCCCCC` (stereo unspecified) (tested in a mixture with another compound), the T/C is, setting by setting: under setting [11], 105 % of control; under setting [12], 91 % of control; under setting [13], 94 % of control.
As for `O=C(Nc1ncccn1)Nc1cccc2ccccc12`, the T/C is, setting by setting: (dose: 12.5 mg/kg/injection, schedule: Q04DX002 (ip), vehicle: Klucel (hydroxypropylcellulose) (HPC)) 102 % of control; (dose: 25.0 mg/kg/injection, schedule: Q04DX002 (ip), vehicle: Klucel (hydroxypropylcellulose) (HPC)) 97 % of control; (dose: 50.0 mg/kg/injection, schedule: Q04DX002 (ip), vehicle: Klucel (hydroxypropylcellulose) (HPC)) 97 % of control; under setting [1], 92 % of control; under setting [2], 92 % of control; under setting [3], 95 % of control.
On to `c1ccc(COc2ccc(OCc3ccccc3)cc2)cc1`, for which the T/C is, setting by setting: under setting [14], 93 % of control; under setting [9], 98 % of control; under setting [11], 87 % of control; under setting [10], 93 % of control; under setting [12], 105 % of control; under setting [13], 94 % of control.
With `CCC1CCC(NC(=O)c2ccccc2)CC1` (stereo unspecified), the T/C is 92 % of control under setting [4]; 94 % of control (dose: 200.0 mg/kg/injection, schedule: Q01DX009 (ip), vehicle: saline with Tween-80); 92 % of control (dose: 400.0 mg/kg/injection, schedule: Q01DX009 (ip), vehicle: saline with Tween-80).
For the compound `CCOC(=O)CNC(=O)Oc1c(Cl)cccc1Cl`, the T/C reads like this: (dose: 25.0 mg/kg/injection, schedule: Q01DX009 (ip), vehicle: Klucel (hydroxypropylcellulose) (HPC)) 100 % of control; (dose: 50.0 mg/kg/injection, schedule: Q01DX009 (ip), vehicle: Klucel (hydroxypropylcellulose) (HPC)) 88 % of control; under setting [5], 89 % of control.
For `CCCCCC/C=C1/CCC/C1=N\NC(=O)c1ccc[n+](C)c1`, the T/C by setting is: (dose: 25.0 mg/kg/injection, schedule: Q04DX003 (ip), vehicle: saline) 100 % of control; (dose: 50.0 mg/kg/injection, schedule: Q04DX003 (ip), vehicle: saline) 101 % of control; under setting [6], 100 % of control.
As for `O=[N+]([O-])c1c[nH]c2ncnc(Cl)c12`, the T/C is 98 % of control (dose: 50.0 mg/kg/injection, schedule: Q01DX001 (ip), vehicle: carboxymethylcellulose (CMC)); 89 % of control (dose: 100.0 mg/kg/injection, schedule: Q01DX001 (ip), vehicle: carboxymethylcellulose (CMC)); 106 % of control (dose: 200.0 mg/kg/injection, schedule: Q01DX001 (ip), vehicle: carboxymethylcellulose (CMC)).
As to `NC(CSC(c1ccccc1)(c1ccccc1)c1ccc2ccccc2c1)C(=O)O` (stereo unspecified), the T/C (dose: 0.74 mg/kg/injection, schedule: Q01DX009 (ip), vehicle: saline) was 124 % of control; the T/C (dose: 3.13 mg/kg/injection, schedule: Q01DX009 (ip), vehicle: saline) is 159 % of control; the T/C (dose: 6.25 mg/kg/injection, schedule: Q01DX009 (ip), vehicle: saline) was 187 % of control; the T/C (dose: 6.3 mg/kg/injection, schedule: Q01DX009 (ip), vehicle: other) was 166 % of control; the T/C (dose: 12.5 mg/kg/injection, schedule: Q01DX009 (ip), vehicle: saline) was 108 % of control; the T/C (dose: 25.0 mg/kg/injection, schedule: Q01DX009 (ip), vehicle: other) is 94 % of control. For the same compound, the T/C reads like this: (dose: 25.0 mg/kg/injection, schedule: Q01DX009 (ip), vehicle: saline) 225 % of control; under setting [14], 103 % of control.
